Measurements from US10294212B2 (CURADEV PHARMA PRIVATE LTD., priority 2013, dated 2019).

Key:
[1] = molecular target: Human indoleamine 2,3-dioxygenase1 (hIDO1) (Homo sapiens (Human), UniProt P14902); assay: In-vitro IDO1 enzyme assay (conversion of L-tryptophan to KYN); type: biochemical; conditions: read-out: IC50 (IDO1) Enz
Procedure, shortened: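 Kynurenine formation quantified by HPLC absorbance at 360 nm or LC/MS/MS after TCA quench and 15 min at 65 °C. Reaction: 10 nM N-His hIDO1, 30 μM tryptophan, ascorbate/methylene blue/catalase, pH 6.5 phosphate buffer, 37 °C for 30 min. Inhibition relative to 1% DMSO vehicle, fitted to IC50.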

IDO1 in HeLa cells = IDO1 in HeLa cells (Homo sapiens (Human), UniProt P14902); assay: HeLa cell based IDO1 assay (IFNγ-induced, KYN in supernatant)
Procedure, shortened: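 Kynurenine in the supernatant, quantified by C-18 HPLC with 360 nm absorbance after TCA hydrolysis (65 °C, 15 min), was the read-out. Compounds (typically 10 μM to 1 nM) were added in HBSS containing 80 μM tryptophan to HeLa cells pre-induced overnight with 50 ng/mL IFNγ. IC50 came from nonlinear fits of % inhibition versus 1% DMSO vehicle.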

[2] = molecular target: Human TDO (hTDO)-transfected CHO-K1 cells (Homo sapiens (Human), UniProt P48775); assay: CHO-K1 cell based TDO assay; conditions: hTDO cellular assay
Procedure, shortened: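 Kynurenine output was read by LC/MS/MS after TCA precipitation and 15 min at 65° C. Before that, CHO-K1 cells stably carrying human TDO2 were incubated 2 h with compounds (typically 31 μM to 10 nM) and 80 μM L-tryptophan in HBSS. Decrease versus DMSO vehicle gave percent inhibition, then IC50.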

Sequence of Human TDO (hTDO)-transfected CHO-K1 cells (P48775 whole entry): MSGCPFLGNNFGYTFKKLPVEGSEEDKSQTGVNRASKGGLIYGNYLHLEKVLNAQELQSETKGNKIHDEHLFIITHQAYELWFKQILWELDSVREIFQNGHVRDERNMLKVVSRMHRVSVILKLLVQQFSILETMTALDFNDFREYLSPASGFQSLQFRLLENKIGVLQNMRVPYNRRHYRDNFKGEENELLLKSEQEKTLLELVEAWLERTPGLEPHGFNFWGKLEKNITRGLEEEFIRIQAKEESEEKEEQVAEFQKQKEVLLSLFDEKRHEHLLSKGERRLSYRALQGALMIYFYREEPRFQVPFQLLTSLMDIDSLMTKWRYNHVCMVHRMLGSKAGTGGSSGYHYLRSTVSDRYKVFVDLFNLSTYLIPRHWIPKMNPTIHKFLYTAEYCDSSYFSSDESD
Sequence of IDO1 in HeLa cells (P14902 whole entry): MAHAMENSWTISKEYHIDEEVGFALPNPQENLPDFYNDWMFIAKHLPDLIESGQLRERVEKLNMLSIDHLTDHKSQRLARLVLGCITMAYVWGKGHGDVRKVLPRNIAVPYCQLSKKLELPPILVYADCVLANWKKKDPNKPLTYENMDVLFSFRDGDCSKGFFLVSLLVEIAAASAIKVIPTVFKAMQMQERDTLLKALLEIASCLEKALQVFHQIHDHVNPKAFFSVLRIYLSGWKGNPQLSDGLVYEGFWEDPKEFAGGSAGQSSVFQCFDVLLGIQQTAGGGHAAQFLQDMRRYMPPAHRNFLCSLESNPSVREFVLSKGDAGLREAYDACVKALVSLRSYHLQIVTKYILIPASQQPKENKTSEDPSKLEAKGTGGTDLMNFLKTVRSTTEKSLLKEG
Sequence of Human indoleamine 2,3-dioxygenase1 (hIDO1) (P14902 whole entry): as above

Row | SMILES | IC50 [1] [nM] | IC50 (IDO1 in HeLa cells) [nM] | IC50 [2] [nM]
1 | CCOC(=O)Nc1oc2c(-c3ccnc(C)c3)nccc2c1N(C(=O)OCC)c1ccc(F)c(F)c1 [Compound 279, Ethyl (3,4-difluorophenyl)(2-((ethoxycarbonyl)amino)-7-(2-methylpyridin-4-yl)furo[2,3-c]pyridin-3-yl)carbamate] | > 1000 | > 1000 | > 2000
2 | COc1ccc(Cl)cc1Nc1c(N)oc2cnccc12 [Compound 25, N^3-(5-Chloro-2-methoxyphenyl)furo[2,3-c]pyridine-2,3-diamine] | > 1000 | 200 to 1000 | 500 to 2000
3 | Nc1oc2cnccc2c1Nc1ccc2c(c1)OCO2 [Compound 35, N^3-(Benzo[d][1,3]dioxol-5-yl)furo[2,3-c]pyridine-2,3-diamine] | 200 to 1000 | < 200 | 500 to 2000
4 | Nc1oc2c[n+]([O-])ccc2c1Nc1ccc(F)c(Cl)c1 [Compound 260, 2-Amino-3-((3-chloro-4-fluorophenyl)amino)furo[2,3-c]pyridine 6-oxide] | 200 to 1000 | 200 to 1000 | 500 to 2000
5 | Cc1ccc2sc(N)c(Nc3ccc(F)c(F)c3)c2c1 [Compound 215, N^3-(3,4-difluorophenyl)-5-methylbenzo[b]thiophene-2,3-diamine] | 200 to 1000 | < 200 | > 2000
6 | Cc1ccc(Nc2c(N)oc3cnccc23)cc1 [Compound 40, N^3-(p-tolyl)Furo[2,3-c]pyridine-2,3-diamine] | > 1000 | < 200 | 500 to 2000
7 | Nc1oc2cnccc2c1Nc1cc(Cl)c(F)c(Cl)c1 [Compound 47, N^3-(3,5-Dichloro-4-fluorophenyl)furo[2,3-c]pyridine-2,3-diamine] | > 1000 | 200 to 1000 | 500 to 2000
8 | Nc1oc2cnccc2c1Nc1cc(Cl)c(F)cc1F [Compound 51, N^3-(5-Chloro-2,4-difluorophenyl)furo[2,3-c]pyridine-2,3-diamine] | > 1000 | < 200 | > 2000
9 | Cc1cc(-c2nccc3c(Nc4cc(Cl)ccc4F)c(N)oc23)ccn1 [Compound 263, N^3-(5-Chloro-2-fluorophenyl)-7-(2-methylpyridin-4-yl)furo[2,3-c]pyridine-2,3-diamine] | < 200 | < 200 | > 2000
10 | Cc1nccc2c(Nc3ccc(F)c(Cl)c3)c(N)oc12 [Compound 66, N^3-(3-Chloro-4-fluoro-phenyl)-7-methyl-furo[2,3-c]pyridine-2,3-diamine] | < 200 | < 200 | < 500
11 | COc1cccc(Nc2c(N)sc3ccccc23)c1 [Compound 235, N^3-(3-Methoxyphenyl)benzo[b]thiophene-2,3-diamine] | 200 to 1000 | < 200 | < 500
12 | N#Cc1ccc(-c2nccc3c(Nc4ccc(F)c(Cl)c4)c(N)oc23)cc1 [Compound 149, 4-(2-Amino-3-((3-chloro-4-fluorophenyl)amino)furo[2,3-c]pyridin-7-yl)benzonitrile] | < 200 | < 200 | 500 to 2000
13 | Nc1oc2c(-c3ccncc3)nc(F)cc2c1Nc1ccc(F)c(Cl)c1 [Compound 180, N^3-(3-Chloro-4-fluorophenyl)-5-fluoro-7-(pyridin-4-yl)furo[2,3-c]pyridine-2,3-diamine] | < 200 | < 200 | 500 to 2000
14 | Cc1cc(-c2nccc3c(Nc4cccc(Cl)c4)c(N)oc23)ccn1 [Compound 238, N^3-(3-Chlorophenyl)-7-(2-methylpyridin-4-yl)furo[2,3-c]pyridine-2,3-diamine] | < 200 | < 200 | 500 to 2000
15 | CCCCOc1cc2c(Nc3ccc(F)c(Cl)c3)c(N)oc2c(-c2ccccc2)n1 [Compound 102, 5-Butoxy-N^3-(3-chloro-4-fluorophenyl)-7-phenylfuro[2,3-c]pyridine-2,3-diamine] | > 1000 | > 1000 | > 2000
16 | Nc1sc2ccccc2c1Nc1cccc(F)c1 [Compound 120, N^3-(3-Fluorophenyl)benzo[b]thiophene-2,3-diamine] | < 200 | < 200 | < 500
17 | CNC(=O)c1cc(-c2nccc3c(Nc4cccc(Cl)c4)c(N)oc23)ccn1 [Compound 225, 4-(2-Amino-3-((3-chlorophenyl)amino)furo[2,3-c]pyridin-7-yl)-N-methylpicolinamide] | < 200 | < 200 | 500 to 2000
18 | Nc1oc2c(-c3ccnc(C(=O)NC4CCCCC4)c3)nccc2c1Nc1ccc(F)c(Cl)c1 [Compound 257, 4-(2-Amino-3-((3-chloro-4-fluorophenyl)amino)furo[2,3-c]pyridin-7-yl)-N-cyclohexylpicolinamide] | < 200 | < 200 | > 2000
19 | COc1cc2c(Nc3ccc(F)c(Cl)c3)c(N)oc2c(Br)n1 [Compound 172, 7-Bromo-N^3-(3-chloro-4-fluorophenyl)-5-methoxyfuro[2,3-c]pyridine-2,3-diamine] | < 200 | < 200 | > 2000
20 | Nc1oc2c(-c3cc(F)nc(F)c3)nccc2c1Nc1ccc(F)c(Cl)c1 [Compound 191, N^3-(3-Chloro-4-fluorophenyl)-7-(2,6-difluoropyridin-4-yl)furo[2,3-c]pyridine-2,3-diamine] | < 200 | < 200 | 500 to 2000

Other lines, results leading:

Row | IC50 [1] [nM] | IC50 (IDO1 in HeLa cells) [nM] | IC50 [2] [nM] | SMILES
21 | < 200 | < 200 | 500 to 2000 | Cc1cc(-c2nccc3c(Nc4ccc(F)c(Cl)c4)c(N)oc23)ccn1 [Compound 158, N^3-(3-chloro-4-fluorophenyl)-7-(2-methylpyridin-4-yl)furo[2,3-c]pyridine-2,3-diamine]
22 | < 200 | < 200 | > 2000 | N#Cc1nccc2c(Nc3ccccc3Cl)c(N)oc12 [Compound 182, 2-Amino-3-((2-chlorophenyl)amino)furo[2,3-c]pyridine-7-carbonitrile]
23 | < 200 | < 200 | 500 to 2000 | Cc1cc(-c2nccc3c(Nc4cccc(C(F)(F)F)c4)c(N)oc23)ccn1 [Compound 207, 7-(2-methylpyridin-4-yl)-N^3-(3-(trifluoromethyl)phenyl)furo[2,3-c]pyridine-2,3-diamine]
24 | < 200 | < 200 | < 500 | Nc1oc2cnc(F)cc2c1Nc1ccc(F)cc1 [Compound 228, 5-Fluoro-N^3-(4-fluorophenyl)furo[2,3-c]pyridine-2,3-diamine]
25 | < 200 | 200 to 1000 | > 2000 | Nc1sc2ccc(Br)cc2c1Nc1ccc(F)c(Cl)c1 [Compound 123, 5-Bromo-N^3-(3-chloro-4-fluorophenyl)benzo[b]thiophene-2,3-diamine]
26 | < 200 | < 200 | < 500 | Nc1oc2c(-c3cccnc3)nccc2c1Nc1ccc(F)c(Cl)c1 [Compound 94, N^3-(3-chloro-4-fluorophenyl)-7-(pyridin-3-yl)furo[2,3-c]pyridine-2,3-diamine]
27 | < 200 | < 200 | 500 to 2000 | Nc1oc2cc([N+](=O)[O-])ccc2c1Nc1ccc(F)c(Cl)c1 [Compound 179, N^3-(3-chloro-4-fluorophenyl)-6-nitrobenzofuran-2,3-diamine]
28 | < 200 | < 200 | > 2000 | COc1cc2c(Nc3ccc(F)c(Cl)c3)c(N)oc2c(-c2ccc(C#N)cc2)n1 [Compound 173, 4-(2-Amino-3-((3-chloro-4-fluorophenyl)amino)-5-methoxyfuro[2,3-c]pyridin-7-yl)benzonitrile]
29 | < 200 | < 200 | > 2000 | Nc1sc2c(-c3ccccc3)cccc2c1Nc1ccc(F)c(Cl)c1 [Compound 233, N^3-(3-Chloro-4-fluorophenyl)-7-phenylbenzo[b]thiophene-2,3-diamine]
30 | < 200 | < 200 | 500 to 2000 | Nc1oc2c(F)nccc2c1Nc1ccc(F)c(C(F)(F)F)c1 [Compound 189, 7-Fluoro-N^3-(4-fluoro-3-(trifluoromethyl)phenyl)furo[2,3-c]pyridine-2,3-diamine]
31 | < 200 | < 200 | > 2000 | Nc1oc2c(-c3cccc(Cl)c3)nccc2c1Nc1ccc(F)c(Cl)c1 [Compound 100, N^3-(3-Chloro-4-fluorophenyl)-7-(3-chlorophenyl)furo[2,3-c]pyridine-2,3-diamine]
32 | < 200 | < 200 | < 500 | CNC(=O)c1cc(-c2nccc3c(Nc4ccc(F)cc4)c(N)oc23)ccn1 [Compound 224, 4-(2-Amino-3-((4-fluorophenyl)amino)furo[2,3-c]pyridin-7-yl)-N-methylpicolinamide]
33 | < 200 | < 200 | 500 to 2000 | Nc1oc2c(-c3ccncc3)nccc2c1Nc1ccccc1Cl [Compound 202, N^3-(2-Chlorophenyl)-7-(pyridin-4-yl)furo[2,3-c]pyridine-2,3-diamine]
34 | < 200 | < 200 | > 2000 | CCCc1nccc2c(Nc3ccc(F)c(Cl)c3)c(N)oc12 [Compound 77, N^3-(3-Chloro-4-fluoro-phenyl)-7-propyl-furo[2,3-c]pyridine-2,3-diamine]
